Consider ten compounds from PubChem BioAssay (NCI).

Among the test systems are SK-MEL-5 melanoma; HCC-2998 colon; NCI-H460 lung; A498 renal; 786-0 renal; K-562 leukemia; LOX IMVI melanoma; UACC-62 melanoma; IGROV1 ovarian; TK-10 renal.
Holding throughout (test): growth of human tumour cells (NCI), 48 h

Each structure is given as a SMILES string. “And” between values parts separate entries of the source, which are not always exact repeats. Identical values can stand only once.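 Where inhibition never reached the appropriate level, the endpoint shown equals the highest concentration tested. Otherwise, values were interpolated linearly from a five-concentration, 48-hour dose response in 96-well plates. The concentration for 50% growth inhibition is given as GI50. TGI is the concentration that stops growth completely.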

Regarding `COc1ccc(C=O)cc1O[Si](C)(C)C(C)(C)C`, the TGI in the test on SK-MEL-5 melanoma, in the test with HCC-2998 colon, with NCI-H460 lung, in the test on A498 renal, with 786-0 renal and with K-562 leukemia was greater than 100 µM each time. For the same compound, the TGI in the test on LOX IMVI melanoma, with UACC-62 melanoma, in the test on IGROV1 ovarian and with TK-10 renal was greater than 100 µM in each case.

As for `C=CC(=O)N1CCC(Oc2cc3c(Nc4ccc(Cl)c(Cl)c4F)ncnc3cc2OC)CC1`, the GI50 in the test with SK-MEL-5 melanoma was 7.18 µM and 3.47 µM; in the test on HCC-2998 colon, 7.61 µM and 2.52 µM; in the test on NCI-H460 lung it was 11.1 µM and 5.88 µM; with A498 renal it was 0.365 µM and 0.179 µM; in the test on 786-0 renal, 1.96 µM and 1.63 µM; in the test on K-562 leukemia, 3.98 µM and 2.68 µM. Moreover, the GI50 in the test on LOX IMVI melanoma was 1.55 µM and 1.2 µM; in the test on UACC-62 melanoma it was 3.25 µM and 2.15 µM; in the test with IGROV1 ovarian, 0.0855 µM and 0.0104 µM; with TK-10 renal, less than 0.001 µM. The TGI is 19.3 µM and > 9 µM in the test with SK-MEL-5 melanoma; 24.8 µM and > 10 µM in the test with HCC-2998 colon; 33.2 µM and > 10 µM in the test on NCI-H460 lung; 1.92 µM and 0.834 µM with A498 renal; 17.7 µM and > 10 µM with 786-0 renal; greater than 100 µM in the test on K-562 leukemia. Besides, the TGI is 5.73 µM and 2.84 µM in the test on LOX IMVI melanoma; 18.7 µM and > 10 µM with UACC-62 melanoma; 4.39 µM and 1.72 µM in the test with IGROV1 ovarian; 6.61 µM and 4.43 µM in the test with TK-10 renal.

In the case of `CCCCCCCCCCCCCCCCCCOC[C@H](COP(=O)(O)O[C@H]1[C@H](O)[C@@H](O)[C@H](O)C[C@H]1O)OC`, the GI50 with SK-MEL-5 melanoma was > 100 µM and 18 µM; with HCC-2998 colon, 24.2 µM and 6.97 µM; with NCI-H460 lung it was 79.4 µM and 11.7 µM; in the test with 786-0 renal, > 100 µM and 15.9 µM; in the test on K-562 leukemia it was > 100 µM and 18.4 µM; with LOX IMVI melanoma, 47.1 µM and 13.4 µM. Moreover, the GI50 in the test with UACC-62 melanoma is > 100 µM and 16.4 µM; with IGROV1 ovarian it was 21.9 µM and 3.28 µM; with TK-10 renal, 41.8 µM and 7.74 µM. Moreover, the TGI is > 100 µM and 32.3 µM in the test with SK-MEL-5 melanoma; > 100 µM and 20.5 µM in the test with HCC-2998 colon; > 100 µM and 26.1 µM with NCI-H460 lung; greater than 100 µM in the test with A498 renal; > 100 µM and 57.8 µM in the test on 786-0 renal; > 100 µM and 55.2 µM with K-562 leukemia. Also, the TGI in the test on LOX IMVI melanoma is > 100 µM and 27.3 µM; in the test with UACC-62 melanoma it was > 100 µM and 30.1 µM; with IGROV1 ovarian, 60.6 µM and 13.5 µM; with TK-10 renal, > 100 µM and 20.7 µM.

For the compound `NCCCNCCS`, the TGI in the test on SK-MEL-5 melanoma, with HCC-2998 colon, in the test with NCI-H460 lung, in the test on A498 renal, with 786-0 renal and with K-562 leukemia was greater than 100 µM in each case. The TGI with LOX IMVI melanoma, in the test with UACC-62 melanoma, in the test on IGROV1 ovarian and with TK-10 renal was greater than 100 µM in each case. Moreover, the GI50 in the test with 786-0 renal was > 100 µM and 49.5 µM.

As for `CN(C)CCC(=O)N1C/C(=C\c2ccc(Cl)c(Cl)c2)C(=O)/C(=C/c2ccc(Cl)c(Cl)c2)C1`, the TGI was 0.759 µM in the test with SK-MEL-5 melanoma; 0.955 µM in the test with HCC-2998 colon; 1.38 µM in the test on NCI-H460 lung; 4.6 µM in the test with A498 renal; 0.323 µM in the test with 786-0 renal; 0.572 µM in the test on K-562 leukemia. Moreover, the TGI came to 0.278 µM in the test on LOX IMVI melanoma, 1.72 µM with UACC-62 melanoma, 0.648 µM in the test on IGROV1 ovarian and 1.58 µM with TK-10 renal.

In the case of `Cc1ccc(S(=O)(=O)N=Nc2c(O)[nH]c3cc(O)c(C(=O)O)cc23)cc1`, the TGI in the test with SK-MEL-5 melanoma, in the test with HCC-2998 colon, in the test with NCI-H460 lung, in the test on A498 renal, in the test with 786-0 renal and with K-562 leukemia was greater than 100 µM each time. The TGI in the test on LOX IMVI melanoma, in the test on UACC-62 melanoma, with IGROV1 ovarian and with TK-10 renal was greater than 100 µM throughout.

Regarding `O=C1N/C(=C\[N+](=O)[O-])c2ccccc21`, the TGI in the test with SK-MEL-5 melanoma, in the test with HCC-2998 colon, in the test with NCI-H460 lung, in the test on A498 renal, in the test on 786-0 renal and in the test with K-562 leukemia was greater than 100 µM in each case. For the same compound, the TGI in the test with LOX IMVI melanoma, in the test on UACC-62 melanoma, in the test with IGROV1 ovarian and in the test on TK-10 renal was greater than 100 µM each time.

For `O=C1C=CC(=O)C2C1C1(Cl)C(Cl)=C(Cl)C2(Cl)C1(Cl)Cl` (stereo not given), the GI50 in the test on SK-MEL-5 melanoma was 6.61 µM; with HCC-2998 colon it was 6.45 µM; in the test on NCI-H460 lung it was 3.06 µM; in the test on A498 renal it was 1.46 µM; with 786-0 renal it was 12.5 µM; in the test with K-562 leukemia it was 2.58 µM. Moreover, the GI50 in the test with LOX IMVI melanoma was 4.05 µM; in the test with UACC-62 melanoma, 5.19 µM; in the test with IGROV1 ovarian, 2.92 µM; in the test with TK-10 renal it was 8.07 µM. The TGI in the test with SK-MEL-5 melanoma was 19.4 µM; in the test on HCC-2998 colon it was 20.4 µM; in the test with NCI-H460 lung, 9.04 µM; in the test on A498 renal, 5.8 µM; with 786-0 renal, 30.1 µM; in the test with K-562 leukemia, 10.8 µM. The TGI in the test on LOX IMVI melanoma is 16.2 µM; in the test with UACC-62 melanoma, 19.2 µM; with IGROV1 ovarian, 19.2 µM; with TK-10 renal, 81 µM.

As for `Cc1ccc(C2=C(c3ccc(C)cc3)C3(c4ccc(C)cc4)C4C(=O)OC(=O)C4C2(c2ccc(C)cc2)S3=O)cc1` (stereo not given), the GI50 in the test with SK-MEL-5 melanoma is 21.3 µM; in the test with HCC-2998 colon, 21.5 µM; in the test on NCI-H460 lung, 24.9 µM; in the test with A498 renal, 21.9 µM; in the test on 786-0 renal, 6.91 µM; in the test with K-562 leukemia, 27.7 µM. In addition, the GI50 was 18.5 µM with LOX IMVI melanoma, 3.57 µM with UACC-62 melanoma, 25.7 µM with IGROV1 ovarian and 38.8 µM with TK-10 renal. Moreover, the TGI with SK-MEL-5 melanoma was 57.6 µM; with HCC-2998 colon it was 55.5 µM; in the test on NCI-H460 lung it was greater than 100 µM; in the test with A498 renal it was 63.4 µM; in the test with 786-0 renal it was 27.7 µM; in the test with K-562 leukemia, greater than 100 µM. Further, the TGI was 73.7 µM in the test on LOX IMVI melanoma, 19.6 µM with UACC-62 melanoma, greater than 100 µM in the test on IGROV1 ovarian and greater than 100 µM in the test on TK-10 renal.

With `NC(CCCC(N)P(=O)(O)O)P(=O)(O)O` (stereo not given), the TGI in the test on SK-MEL-5 melanoma, in the test with HCC-2998 colon, in the test on NCI-H460 lung, in the test with A498 renal, with 786-0 renal and in the test on K-562 leukemia was greater than 100 µM in each case. Also, the TGI in the test with LOX IMVI melanoma, with UACC-62 melanoma, with IGROV1 ovarian and with TK-10 renal was greater than 100 µM in each case.
